Reference: US8658801B2, “Pesticides containing a bicyclic bisamide structure” (Syngenta Crop Protection, LLC, priority 2006, dated 2014)

Key:
[1] = tested on: Myzus persicae (Green Peach Aphid); test: Example B5: activity against Myzus persicae, mixed population, feeding/residual contact, preventive (sunflower leaf discs); conditions: foliar, 144 h, read-out: activity
[2] = tested on: Diabrotica balteata (Corn Root Worm); test: Example B4: Diabrotica balteata, larvicide, feeding/residual contact, preventive; assay type: in vivo; conditions: 120 h, 5 days incubation, L2 larvae
Method in brief: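 Artificial diet treated with test solution, dried, then infested with 6-10 L2 larvae per well. Larval mortality, antifeedant effect and growth regulation checked after 5 days of incubation.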

[3] = tested on: Heliothis virescens (Tobacco Budworm); test: Example B2: activity against Heliothis virescens, ovo-larvicide, feeding/contact, curative; assay type: in vivo; conditions: 96 h, 4 days incubation, eggs 0-24 h old
Procedure: Activity Against Heliothis virescens (Tobacco Budworm)
(Ovo-Larvicide, Feeding/Contact Activity, Curative)
Eggs (0-24 h old) are placed in 24-well microtiter plate on artificial diet and treated with test solutions by pipetting. After an incubation period of 4 days, samples are checked for egg mortality, larval mortality, and growth regulation.

[4] = tested on: Frankliniella occidentalis (Western Flower Thrips); test: Example B9: activity against Frankliniella occidentalis (bean leaf discs or bean plants); assay type: in vivo; conditions: foliar, 6 days (leaf discs) or 14 days (plants) after infestation
Procedure: Activity Against Frankliniella occidentalis (Western Flower Thrips)
Bean leaf discs on agar in petri dishes or bean plants in a spray chamber are treated with diluted test solutions. After drying leaf discs are cut and placed in plastic cups on the surface of an agar layer and infested with mixed population. 6 days (leaf discs) or 14 days (plants) after the infestation, samples are checked for reduction of treated population and compared to the non treated population.

[5] = tested on: Spodoptera littoralis (Egyptian Cotton Leafworm); test: Example B1: activity against Spodoptera littoralis, larvicide, feeding/residual contact, preventive (cotton leaf discs); assay type: in vivo; conditions: foliar, 72 h, 3 days after treatment, L1 larvae
[6] = tested on: Plutella xylostella (Diamond Back Moth); test: Example B3: Plutella xylostella, larvicide, feeding/residual contact, preventive (artificial diet MTP); assay type: in vivo; conditions: 120 h, 5 days incubation, L2 larvae
Method in brief: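 Artificial diet in multiwell plates treated with test solution, dried, then infested with 10–15 L2 larvae per well. After 5 days, larval mortality, antifeedant effect and growth regulation were scored.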

[7] = tested on: Cydia pomonella (Codling Moth); test: Example B8: activity against Cydia pomonella (paraffin-coated diet cubes); assay type: in vivo; conditions: 336 h, 14 days incubation at 26° C.
Procedure: Activity Against Cydia pomonella (Codling Moth)
Standard Cydia diet cubes (1.5 cm width) are pierced with a tooth-pick and are immersed in liquid paraffin (ca. 80° C.). After the paraffin coat has hardened, an aqueous emulsion containing 400 ppm of active ingredient is applied using a De Vilbis sprayer (25 ml, 1 bar). After the spray coating has dried, the cubes are put into plastic containers which are then populated with two freshly hatched Cydia pomonella (1st instar). The containers are then closed with a plastic cap. After 14 days incubation at 26° C. and 40-60% relative humidity, the survival rate of the caterpillars as well as their growth regulation is determined. In this test, compounds listed in Table P above show good activity. In particular compounds P.10, P.11, P.12, P.18, P.19, P.20, P.29, P.30, P.31, P.32, P.33, P.34, P.35, P.37, P.38, P.39, P.42, and P.43 show an activity of over 80% at a concentration of 400 ppm.

[8] = tested on: Thrips tabaci (Onion Thrips); test: Example B7: activity against Thrips tabaci, mixed population, feeding/residual contact, preventive; conditions: 144 h, read-out: activity
[9] = tested on: Myzus persicae (Green Peach Aphid); test: Example B6: activity against Myzus persicae, mixed population, systemic/feeding, curative (pea seedling roots); conditions: 144 h, read-out: activity
[10] = tested on: Aphis craccivora (Pea Aphid); test: Example B11: activity against Aphis craccivora, mixed population, systemic/feeding; assay type: in vivo; conditions: 144 h, 6 days, roots in test solution (systemic)
Source text: (§1) Activity Against Aphis craccivora (Pea Aphid)
(§2) (Mixed Population, Systemic/Feeding)
(§3) 6 days later, samples are checked for mortality.

[11] = tested on: Aphis aossypii (Cotton Aphid); test: Example B13: activity against cotton aphid, mixed population, systemic/feeding; assay type: in vivo; conditions: 144 h, 6 days, roots in test solution (systemic)
Source text: Activity Against Aphis aossypii (Cotton Aphid)
as §2, §3

[12] = tested on: Aphis craccivora (Pea Aphid); test: Example B10: activity against Aphis craccivora, mixed population, contact/feeding; assay type: in vivo; conditions: 144 h, 6 days after treatment, spray (contact/feeding)
Source text: as §1
(Mixed Population, Contact/Feeding)
6 days after treatment, samples are checked for mortality.

Measured: pest or weed control at 400 ppm

O=C(NCC1CC1)c1c(NC(=O)c2cc(C(F)(F)F)nn2-c2ncccc2Cl)c(Cl)cc2cn[nH]c12 [P.11]
> 80%: [1] | [2] | [3] | [4] | [5] | [6] | [7]

O=C(NC1(C2CC2)CC1)c1c(NC(=O)c2cc(C(F)(F)F)nn2-c2ncccc2Cl)c(Cl)cc2cn[nH]c12 [P.12]
not listed: [10] | [11] | [12]
> 80%: all other assays above

O=C(NC1(C2CC2)CC1)c1c(NC(=O)c2cc(C(F)(F)F)nn2-c2ncccc2Cl)c(Br)cc2cn[nH]c12 [P.18]
not listed: [9] | [10] | [11] | [12]
> 80%: all other assays above

O=C(NCC1CC1)c1c(NC(=O)c2cc(C(F)(F)F)nn2-c2ncccc2Cl)c(Br)cc2cn[nH]c12 [P.19]
not listed: [8] | [10] | [11] | [12]
> 80%: all other assays above

CNC(=O)c1c(NC(=O)c2cc(C(F)(F)F)nn2-c2ncccc2Cl)c(Cl)cc2cn[nH]c12 [P.29]
not listed: [4] | [10] | [11] | [12]
> 80%: all other assays above

CSCC(C)(C)NC(=O)c1c(NC(=O)c2cc(C(F)(F)F)nn2-c2ncccc2Cl)c(Br)cc2cn[nH]c12 [P.33]
not listed: [11] | [12]
> 80%: all other assays above

CC(C)(CS(C)(=O)=O)NC(=O)c1c(NC(=O)c2cc(C(F)(F)F)nn2-c2ncccc2Cl)c(Br)cc2cn[nH]c12 [P.34]
not listed: [10] | [11] | [12]
> 80%: all other assays above

COc1cc(C(=O)Nc2c(Br)cc3cn[nH]c3c2C(=O)NC(C)C)n(-c2ncccc2Cl)n1 [P.35]
not listed: [10] | [11] | [12]
> 80%: all other assays above

CCNC(=O)c1c(NC(=O)c2cc(Cl)nn2-c2ncccc2Cl)c(Br)cc2cn[nH]c12 [P.37]
not listed: [4] | [10] | [11] | [12]
> 80%: all other assays above

O=C(NC1(C2CC2)CC1)c1c(NC(=O)c2cc(C(F)F)nn2-c2ncccc2Cl)c(Cl)cc2cn[nH]c12 [P.38]
> 80%: [1] | [2] | [3] | [4] | [5] | [6] | [7]

CC(C)NC(=O)c1c(NC(=O)c2cc(C(F)F)nn2-c2ncccc2Cl)c(Cl)cc2cn[nH]c12 [P.39]
not listed: [12]
> 80%: all other assays above

O=C(NC1(C2CC2)CC1)c1c(NC(=O)c2cc(Br)nn2-c2ncccc2Cl)c(Cl)cc2cn[nH]c12 [P.46]
not listed: [7] | [11]
> 80%: all other assays above

Cc1cc2cn[nH]c2c(C(=O)NC2(C3CC3)CC2)c1NC(=O)c1cc(C(F)(F)F)nn1-c1ncccc1Cl [P.49]
not listed: [7] | [11]
> 80%: all other assays above

Cc1cc2cn[nH]c2c(C(=O)NC(C)C)c1NC(=O)c1cc(C(F)F)nn1-c1ncccc1Cl [P.56, 6-{[2-(3-chloro-pyridin-2-yl)-5-difluoromethyl-2H-pyrazole-3-carbonyl]-amino}-5-methyl-1H-indazole-7-carboxylic acid isopropylamide]
not listed: [2] | [7] | [12]
> 80%: all other assays above

COc1cc(C(=O)Nc2c(Cl)cc3cn[nH]c3c2C(=O)NC(C)(C)CS(C)(=O)=O)n(-c2ncccc2Cl)n1 [P.60]
not listed: [2] | [7] | [8] | [12]
> 80%: all other assays above

COc1cc(C(=O)Nc2c(Cl)cc3cn[nH]c3c2C(=O)NC2(C)CS(=O)(=O)C2)n(-c2ncccc2Cl)n1 [P.61, 5-chloro-6-{[2-(3-chloro-pyridin-2-yl)-5-methoxy-2H-pyrazole-3-carbonyl]-amino}-1H-indazole-7-carboxylic acid (3-methyl-1,1-dioxo-1lambda*6*-thietan-3-yl)-amide]
not listed: [2] | [7] | [8] | [12]
> 80%: all other assays above
